Measurements published in patent US5136076A, “Process for the preparation of amino acid-derived enatiomeric compounds” (Societe Civile Bioprojet, priority 1987, dated 1992).

Key:
[1] = test system: mouses; assay: Analgesic activity, plate jump test at 55° C.; format: in vivo, mouse
Experimental: III. ANALGESIC ACTIVITIES MEASURED ON PLATE JUMP TEST AT 55° C. AFTER ADMINISTRATION TO MOUSES.
(Eddy and Leimbach, J. Pharmacol. Exp. Ther. 1953, 107 385).

[2] = biological target: T1, ACE (angiotensin convertase) (Mus musculus, UniProt P09470); assay: ACE inhibition in vivo, mouse striatum (Table 1 (d))
T1 construct: Activities measured on mouse striatum membranes in vitro or 30; from tissue; host or cells: mouse striatum (membranes)
T1 sequence (P09470 35-1312): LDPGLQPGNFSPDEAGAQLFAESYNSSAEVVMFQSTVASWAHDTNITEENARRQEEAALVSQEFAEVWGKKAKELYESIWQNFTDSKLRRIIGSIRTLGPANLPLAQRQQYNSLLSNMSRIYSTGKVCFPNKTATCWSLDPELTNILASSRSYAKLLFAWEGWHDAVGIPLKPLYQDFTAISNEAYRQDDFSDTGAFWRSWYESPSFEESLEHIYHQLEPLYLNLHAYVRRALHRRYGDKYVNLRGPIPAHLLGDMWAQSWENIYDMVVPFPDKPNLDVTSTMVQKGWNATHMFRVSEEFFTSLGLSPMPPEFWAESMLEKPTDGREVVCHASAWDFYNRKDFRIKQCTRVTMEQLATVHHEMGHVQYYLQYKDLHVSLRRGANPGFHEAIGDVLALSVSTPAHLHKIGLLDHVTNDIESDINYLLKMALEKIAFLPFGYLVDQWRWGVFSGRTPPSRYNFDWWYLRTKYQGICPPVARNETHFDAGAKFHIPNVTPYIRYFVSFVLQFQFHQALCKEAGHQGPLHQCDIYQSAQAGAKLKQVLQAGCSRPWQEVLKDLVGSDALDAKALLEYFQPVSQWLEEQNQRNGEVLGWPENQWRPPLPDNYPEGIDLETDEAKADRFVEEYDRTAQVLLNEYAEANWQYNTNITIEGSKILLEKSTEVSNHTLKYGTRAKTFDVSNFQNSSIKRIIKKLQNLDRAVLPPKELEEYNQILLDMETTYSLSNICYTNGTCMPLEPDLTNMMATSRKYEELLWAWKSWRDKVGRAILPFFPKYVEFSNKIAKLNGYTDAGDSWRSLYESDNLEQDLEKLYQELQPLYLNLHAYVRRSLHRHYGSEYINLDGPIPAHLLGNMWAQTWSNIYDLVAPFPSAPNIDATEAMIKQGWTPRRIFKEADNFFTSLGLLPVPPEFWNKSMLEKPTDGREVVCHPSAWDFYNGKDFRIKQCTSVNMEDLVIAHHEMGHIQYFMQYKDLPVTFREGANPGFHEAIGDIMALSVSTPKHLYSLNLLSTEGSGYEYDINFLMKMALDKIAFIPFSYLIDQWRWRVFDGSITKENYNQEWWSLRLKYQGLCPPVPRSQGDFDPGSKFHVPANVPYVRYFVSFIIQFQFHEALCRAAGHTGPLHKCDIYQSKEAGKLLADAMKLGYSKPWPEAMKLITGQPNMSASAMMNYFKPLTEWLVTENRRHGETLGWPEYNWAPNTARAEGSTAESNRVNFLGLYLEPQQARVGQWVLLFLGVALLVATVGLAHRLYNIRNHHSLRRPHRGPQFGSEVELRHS
From the text: (§1) Dosage of `enkephalinase` activity and angiotensin convertase (ACE) activity with determination of the effect of inhibitors both in vitro and on mouses in vivo: inhibition of the same enzymes and protection of natriuretic auricular factor.
(§2) ENKEPHALINASE AND ACE INHIBITING ACTIVITIES IN IN VITRO AND IN VIVO STRIATUM
(c) and (d)Activities measured on mouse striatum membranes in vitro or 30
mn after i.v. administration according to Yang and Neff, J. Neurochem, […]

[3] = biological target: T2, enkephalinase (Mus musculus, UniProt Q61391); assay: Enkephalinase inhibition in vitro on striatum membranes (Table 1 (a)); format: biochemical
T2 construct: Activity measured on striatum membranes according to Llorens et al., J; from tissue; host or cells: striatum membranes
T2 sequence (Q61391 1-750): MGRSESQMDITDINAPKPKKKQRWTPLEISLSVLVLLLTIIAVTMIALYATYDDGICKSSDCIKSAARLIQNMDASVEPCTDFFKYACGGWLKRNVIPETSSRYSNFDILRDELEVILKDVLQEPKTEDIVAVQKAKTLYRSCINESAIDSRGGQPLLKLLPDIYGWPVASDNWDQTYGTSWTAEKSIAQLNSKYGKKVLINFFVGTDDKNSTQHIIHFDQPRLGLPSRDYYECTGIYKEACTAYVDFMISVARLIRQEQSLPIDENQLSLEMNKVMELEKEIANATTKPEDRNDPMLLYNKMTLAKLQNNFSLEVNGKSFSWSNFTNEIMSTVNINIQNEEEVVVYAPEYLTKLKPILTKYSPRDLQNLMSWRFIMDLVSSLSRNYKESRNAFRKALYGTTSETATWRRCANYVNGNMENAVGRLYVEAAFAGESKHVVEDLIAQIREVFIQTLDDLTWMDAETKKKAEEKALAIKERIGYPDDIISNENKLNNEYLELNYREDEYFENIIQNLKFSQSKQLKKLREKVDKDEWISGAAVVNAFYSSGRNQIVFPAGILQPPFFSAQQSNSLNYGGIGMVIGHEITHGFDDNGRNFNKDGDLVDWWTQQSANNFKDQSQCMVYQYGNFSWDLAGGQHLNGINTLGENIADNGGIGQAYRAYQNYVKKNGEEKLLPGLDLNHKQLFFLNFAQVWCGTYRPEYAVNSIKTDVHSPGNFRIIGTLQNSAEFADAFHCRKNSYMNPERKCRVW
From the text: as §1, §2
(a)Activity measured on striatum membranes according to Llorens et al., J

[4] = test system: cats; assay: Anti-inflammatory activity in experimental cholecystitis; format: in vivo, cat; settings: 3 mg/kg i.v.
[5] = test system: mouses; assay: Subacute toxicity, 3 weeks oral; format: in vivo; settings: 2 g/kg/day oral, mouse, as opposed to control
Experimental: Compound (1) was administered during 3 weeks to mouses at an oral dose of 2 g/kg/day.
Moreover, no signs of tolerance, habituation or other weaning phenomenon were observed on animals submitted to a reversibility test after treatment.

[6] = test system: plasma enkephalinase; assay: Clinical pharmacology: plasma enkephalinase; format: in vivo, human; settings: 30 mg oral, 1 hr after administration, vs placebo, p<0.001
Experimental: (§3) With healthy volunteers (9 male subjects) enkephalinase and natriuretic auricular factor (ANF) plasma levels as well as diuresis and natruresis are measured after oral administration of either a placebo, or (S) acetorphan.

[7] = test system: plasma ANF; assay: Clinical pharmacology: plasma natriuretic auricular factor (ANF); format: in vivo, human; settings: 30 mg oral, 1 hr after administration, vs placebo, p<0.05
Experimental: as §3

Structure (SMILES)	Reaction time ([1]; 5 mg/kg i.v., 20' before test) [s]	Reaction time ([1]; 30 mg/kg oral, 1 h before test) [s]	Reaction time ([1]; 100 mg/kg oral, 1 h before test) [s]	ACE-inhibiting effect ([2]; mouse, in vivo)	ED50 ([2]; mouse, iv, 0.5 h, mouse striatum, 30 mn after i.v. administration, read-out: ACE In vivo(d) (DE50, mg/kg)) [mg/kg]	IC50 [3] [nM]	hypersecretion induced by an inflammation of the gall bladder [4]	Organ weight and pathological examination [5]	inhibition of plasma enkephalinase [6] [%]	ACE In vivo(d) (DE50, mg/kg) ([2]; mouse striatum, 30 mn after i.v. administration, 30 min) [mg/kg]	increase of plasma ANF [7] [%]
CC(=O)SCC(Cc1ccccc1)C(=O)NCC(=O)OCc1ccccc1 (single isomer, unassigned) [Compound (1)]	85 ± 5	80 ± 6	140 ± 10	lack of ACE-inhibiting effect	> 20	2	significatively decreases hypersecretion	no difference as opposed to control	–	–	–
CC(=O)SCC(Cc1ccccc1)C(=O)NCC(=O)OCc1ccccc1 (single isomer, unassigned) [Compound (2)]	–	75 ± 5	–	–	–	3	–	–	62	10	50
